This is an account of results in patent US9809625B2, “Immunomodulators” (BRISTOL-MYERS SQUIBB COMPANY, priority 2015, dated 2017).

Bridge positions count the residues as written; N and C are the ends. Square brackets hold non-standard residues; d marks the D form. Peptide text beside a SMILES is read from it. * marks the point of attachment. ξ: configuration not given here. Hyp = O=C(O)[C@@H]1C[C@@H](O)CN1; ξW = NC(Cc1c[nH]c2ccccc12)C(=O)O; NH(3-picolyl) = c1cncc(CN*)c1; NMeNle = CCCC[C@H](NC)C(=O)O; X7 = CC(C)(C)OC(=O)NCCCCCN*; NMeA = CN[C@@H](C)C(=O)O; X4 = [N-]=[N+]=NCCCCCN*; Dap = NC[C@H](N)C(=O)O; NH(propargyl) = C#CCN*; X1 = CN(C)C1CCN(*)CC1; X10 = c1ccc(OCCN*)cc1; NHCH2cPr = C1CC1CN*; NHcBu = C1CC(N*)C1; NHAllyl = C=CCN*; NHcPr = C1CC1N*

The experiment deals with T1, PD-1-Ig binding to PD-L1-TVMV-His (PD-L1-His) (Homo sapiens, UniProt Q9NZQ7).
T1 construct: hPDL1(19-239)-TVMV-His; TVMV protease cleavage site (C); made in house; host or cells: HEK293T
T1 sequence (Q9NZQ7 with tags, fused parts or gaps): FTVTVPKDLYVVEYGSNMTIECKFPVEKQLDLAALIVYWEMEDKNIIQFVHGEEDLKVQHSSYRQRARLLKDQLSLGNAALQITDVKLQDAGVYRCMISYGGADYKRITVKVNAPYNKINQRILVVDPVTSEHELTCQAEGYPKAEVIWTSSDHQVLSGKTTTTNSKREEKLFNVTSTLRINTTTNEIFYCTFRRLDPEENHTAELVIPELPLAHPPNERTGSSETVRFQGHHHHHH
Kind of experiment: PD-1/PD-L1 Homogenous Time-Resolved Fluorescence (HTRF) binding assay. The following applies: PD-1-Ig (20 nM)/PD-L1-His (10 nM), range classes. The source says:
Methods for Testing the Ability of Macrocyclic Peptides to Compete for the Binding of PD-1 to PD-L1 Using Homogenous Time-Resolved Fluorescence (HTRF) Binding Assays
The ability of the macrocyclic peptides of the present disclosure to bind to PD-L1 was investigated using a PD-1/PD-L1 Homogenous Time-Resolved Fluorescence (HTRF) binding assay.
Homogenous Time-Resolved Fluorescence (HTRF) Assays of Binding of Soluble PD-1 to Soluble PD-L1. Soluble PD-1 and soluble PD-L1 refers to proteins with carboxyl-end truncations that remove the transmembrane-spanning regions and are fused to heterologous sequences, specifically the Fc portion of the human immunoglobuling G sequence (Ig) or the hexahistidine epitope tag (His). All binding studies were performed in an HTRF assay buffer consisting of dPBS supplemented with 0.1% (w/v) bovine serum albumin and 0.05% (v/v) Tween-20. For the PD-1-Ig/PD-L1-His binding assay, inhibitors were pre-incubated with PD-L1-His (10 nM final) for 15 m in 4 μl of assay buffer, followed by addition of PD-1-Ig (20 nM final) in 1 μl of assay buffer and further incubation for 15 m. PD-L1 fusion proteins from either human, cynomologous macaques, mouse, or other species were used. HTRF detection was achieved using europium crypate-labeled anti-Ig monoclonal antibody (1 nM final) and allophycocyanin (APC) labeled anti-His monoclonal antibody (20 nM final). Antibodies were diluted in HTRF detection buffer and 5 μl was dispensed on top of binding reaction. The reaction was allowed to equilibrate for 30 minutes and signal (665 nm/620 nm ratio) was obtained using an EnVision fluorometer. Additional binding assays were established between PD-1-Ig/PD-L2-His (20 and 5 nM, respectively), CD80-His/PD-L1-Ig (100 and 10 nM, respectively) and CD80-His/CTLA4-Ig (10 and 5 nM, respectively). Binding/competition studies between biotinylated Compound No. 71 and human PD-L1-His were performed as follows. Macrocyclic peptide inhibitors were pre-incubated with PD-L1-His (10 nM final) for 60 minutes in 4 μl of assay buffer followed by addition of biotinylated Compound No. 71 (0.5 nM final) in 1 μl of assay buffer. Binding was allowed to equilibrate for 30 minutes followed by addition of europium crypated labeled Streptavidin (2.5 pM final) and APC-labeled anti-His (20 nM final) in 5 μl of HTRF buffer. The reaction was allowed to equilibrate for 30 m and signal (665 nm/620 nm ratio) was obtained using an EnVision fluorometer.
Recombinant Proteins. Carboxyl-truncated human PD-1 (amino acids 25-167) with a C-terminal human Ig epitope tag [hPD-1 (25-167)-3S-IG] and human PD-L1 (amino acids 18-239) with a C-terminal His epitope tag [hPD-L1(19-239)-tobacco vein mottling virus protease cleavage site (TVMV)-His] were expressed in HEK293T cells and purified sequentially by recombinant Protein A affinity chromatography and size exclusion chromatography. Human PD-L2-His (Sino Biologicals), CD80-His (Sino Biologicals), CTLA4-Ig (RnD Systems) were all obtained through commercial sources.
One may read the IC50 as the concentration that inhibits the measured activity by half. As to `CCCC[C@H]1C(=O)N(C)[C@@H](CCCC)C(=O)N[C@@H](CC(C)C)C(=O)N[C@H](C(=O)NCC(=O)NCC2CC2)CSCC(=O)N[C@@H](Cc2ccc(O)cc2)C(=O)N(C)[C@@H](C)C(=O)N[C@@H](CC(N)=O)C(=O)N2CCC[C@H]2C(=O)N[C@@H](CN)C(=O)N[C@@H](CC(C)C)C(=O)N2C[C@H](O)C[C@H]2C(=O)N[C@@H](Cc2c[nH]c3ccccc23)C(=O)NCC(=O)NC(Cc2c[nH]c3ccccc23)C(=O)N1C` (stereo partly shown) [Example 13104] ({CH2CO}-Y[NMeA]NP[Dap]L[Hyp]WG[ξW][NMeNle][NMeNle]LCG-NHCH2cPr; thioether N-14), the IC50 is 10 to 60 nM.

Consider `C#CCNC(=O)CNC(=O)[C@@H]1CSCC(=O)N[C@@H](Cc2ccc(O)cc2)C(=O)N(C)[C@@H](C)C(=O)N[C@@H](CC(N)=O)C(=O)N2CCC[C@H]2C(=O)N[C@@H](CN)C(=O)N[C@@H](CC(C)C)C(=O)N2C[C@H](O)C[C@H]2C(=O)N[C@@H](Cc2c[nH]c3ccccc23)C(=O)NCC(=O)NC(Cc2c[nH]c3ccccc23)C(=O)N(C)[C@@H](CCCC)C(=O)N(C)[C@@H](CCCC)C(=O)N[C@@H](CC(C)C)C(=O)N1` (stereo partly shown) [Example 13096] ({CH2CO}-Y[NMeA]NP[Dap]L[Hyp]WG[ξW][NMeNle][NMeNle]LCG-{NH(propargyl)}; thioether N-14), for which the IC50 was 10 to 60 nM.

Turning to `C=CCNC(=O)CNC(=O)[C@@H]1CSCC(=O)N[C@@H](Cc2ccc(O)cc2)C(=O)N(C)[C@@H](C)C(=O)N[C@@H](CC(N)=O)C(=O)N2CCC[C@H]2C(=O)N[C@@H](CN)C(=O)N[C@@H](CC(C)C)C(=O)N2C[C@H](O)C[C@H]2C(=O)N[C@@H](Cc2c[nH]c3ccccc23)C(=O)NCC(=O)NC(Cc2c[nH]c3ccccc23)C(=O)N(C)[C@@H](CCCC)C(=O)N(C)[C@@H](CCCC)C(=O)N[C@@H](CC(C)C)C(=O)N1` (stereo partly shown) [Example 13097] ({CH2CO}-Y[NMeA]NP[Dap]L[Hyp]WG[ξW][NMeNle][NMeNle]LCG-NHAllyl; thioether N-14), the IC50 fell in the range of 10 to 60 nM.

For the molecule `CCCC[C@H]1C(=O)N(C)[C@@H](CCCC)C(=O)N[C@@H](CC(C)C)C(=O)N[C@H](C(=O)NCC(=O)NC2CC2)CSCC(=O)N[C@@H](Cc2ccc(O)cc2)C(=O)N(C)[C@@H](C)C(=O)N[C@@H](CC(N)=O)C(=O)N2CCC[C@H]2C(=O)N[C@@H](CN)C(=O)N[C@@H](CC(C)C)C(=O)N2C[C@H](O)C[C@H]2C(=O)N[C@@H](Cc2c[nH]c3ccccc23)C(=O)NCC(=O)NC(Cc2c[nH]c3ccccc23)C(=O)N1C` (stereo partly shown) [Example 13091] ({CH2CO}-Y[NMeA]NP[Dap]L[Hyp]WG[ξW][NMeNle][NMeNle]LCG-NHcPr; thioether N-14), the 50% inhibitory concentration (IC50) lay in the range of 4 to 9.9 nM.

The molecule `CCCC[C@H]1C(=O)N(C)[C@@H](CCCC)C(=O)N[C@@H](CC(C)C)C(=O)N[C@H](C(=O)NCC(=O)N2CCC(N(C)C)CC2)CSCC(=O)N[C@@H](Cc2ccc(O)cc2)C(=O)N(C)[C@@H](C)C(=O)N[C@@H](CC(N)=O)C(=O)N2CCC[C@H]2C(=O)N[C@@H](CN)C(=O)N[C@@H](CC(C)C)C(=O)N2C[C@H](O)C[C@H]2C(=O)N[C@@H](Cc2c[nH]c3ccccc23)C(=O)NCC(=O)NC(Cc2c[nH]c3ccccc23)C(=O)N1C` (stereo partly shown) [Example 13103] ({CH2CO}-Y[NMeA]NP[Dap]L[Hyp]WG[ξW][NMeNle][NMeNle]LCG-X1; thioether N-14) returned an IC50 of 10 to 60 nM.

In turn, `CCCC[C@H]1C(=O)N(C)[C@@H](CCCC)C(=O)N[C@@H](CC(C)C)C(=O)N[C@H](C(=O)NCC(=O)NCCOc2ccccc2)CSCC(=O)N[C@@H](Cc2ccc(O)cc2)C(=O)N(C)[C@@H](C)C(=O)N[C@@H](CC(N)=O)C(=O)N2CCC[C@H]2C(=O)N[C@@H](CN)C(=O)N[C@@H](CC(C)C)C(=O)N2C[C@H](O)C[C@H]2C(=O)N[C@@H](Cc2c[nH]c3ccccc23)C(=O)NCC(=O)N[C@@H](Cc2c[nH]c3ccccc23)C(=O)N1C` [Example 13108] ({CH2CO}-Y[NMeA]NP[Dap]L[Hyp]WGW[NMeNle][NMeNle]LCG-X10; thioether N-14) returned an IC50 of 10 to 60 nM.

`CCCC[C@H]1C(=O)N(C)[C@@H](CCCC)C(=O)N[C@@H](CC(C)C)C(=O)N[C@H](C(=O)NCC(=O)NCc2cccnc2)CSCC(=O)N[C@@H](Cc2ccc(O)cc2)C(=O)N(C)[C@@H](C)C(=O)N[C@@H](CC(N)=O)C(=O)N2CCC[C@H]2C(=O)N[C@@H](CN)C(=O)N[C@@H](CC(C)C)C(=O)N2C[C@H](O)C[C@H]2C(=O)N[C@@H](Cc2c[nH]c3ccccc23)C(=O)NCC(=O)NC(Cc2c[nH]c3ccccc23)C(=O)N1C` (stereo partly shown) [Example 13094] ({CH2CO}-Y[NMeA]NP[Dap]L[Hyp]WG[ξW][NMeNle][NMeNle]LCG-{NH(3-picolyl)}; thioether N-14) returned a 50% inhibitory concentration (IC50) of 10 to 60 nM.

In turn, `CCCC[C@H]1C(=O)N(C)[C@@H](CCCC)C(=O)N[C@@H](CC(C)C)C(=O)N[C@H](C(=O)NCC(=O)NC2CCC2)CSCC(=O)N[C@@H](Cc2ccc(O)cc2)C(=O)N(C)[C@@H](C)C(=O)N[C@@H](CC(N)=O)C(=O)N2CCC[C@H]2C(=O)N[C@@H](CN)C(=O)N[C@@H](CC(C)C)C(=O)N2C[C@H](O)C[C@H]2C(=O)N[C@@H](Cc2c[nH]c3ccccc23)C(=O)NCC(=O)N[C@@H](Cc2c[nH]c3ccccc23)C(=O)N1C` [Example 13092] ({CH2CO}-Y[NMeA]NP[Dap]L[Hyp]WGW[NMeNle][NMeNle]LCG-NHcBu; thioether N-14) showed an IC50 of 10 to 60 nM.

In turn, `CCCC[C@H]1C(=O)N(C)[C@@H](CCCC)C(=O)N[C@@H](CC(C)C)C(=O)N[C@H](C(=O)NCC(=O)NCCCCCN=[N+]=[N-])CSCC(=O)N[C@@H](Cc2ccc(O)cc2)C(=O)N(C)[C@@H](C)C(=O)N[C@@H](CC(N)=O)C(=O)N2CCC[C@H]2C(=O)N[C@@H](CO)C(=O)N[C@@H](CCC(N)=O)C(=O)N2C[C@H](O)C[C@H]2C(=O)N[C@@H](Cc2c[nH]c3ccccc23)C(=O)N[C@@H](CO)C(=O)N[C@@H](Cc2c[nH]c3ccccc23)C(=O)N1C` [Example 13081] ({CH2CO}-Y[NMeA]NPSQ[Hyp]WSW[NMeNle][NMeNle]LCG-X4; thioether N-14) came in with an IC50 of 10 to 60 nM.

For the molecule `CCCC[C@H]1C(=O)N(C)[C@@H](CCCC)C(=O)N[C@@H](CC(C)C)C(=O)N[C@H](C(=O)NCC(=O)NCCCCCNC(=O)OC(C)(C)C)CSCC(=O)N[C@@H](Cc2ccc(O)cc2)C(=O)N(C)[C@@H](C)C(=O)N[C@@H](CC(N)=O)C(=O)N2CCC[C@H]2C(=O)N[C@@H](CN)C(=O)N[C@@H](CC(C)C)C(=O)N2C[C@H](O)C[C@H]2C(=O)N[C@@H](Cc2c[nH]c3ccccc23)C(=O)NCC(=O)NC(Cc2c[nH]c3ccccc23)C(=O)N1C` (stereo partly shown) [Example 13112] ({CH2CO}-Y[NMeA]NP[Dap]L[Hyp]WG[ξW][NMeNle][NMeNle]LCG-X7; thioether N-14), the concentration for half-maximal inhibition (IC50) lay in the range of 10 to 60 nM.
